Measurements from US8143244B2, “Cyclopropyl fused indolobenzazepine HCV NS5B inhibitors” (Bristol-Myers Squibb Company, priority 2009, dated 2012).

Key:
[1] = test system: HCV replicon; assay: HCV replicon FRET / luciferase assay (NeoLuc); assay type: cell-based, HCV genotype 1b; conditions: HCV replicon cells
Source text: FRET Assay Preparation. To perform the HCV FRET screening assay, 96-well cell culture plates were used. The FRET peptide (Anaspec, Inc.) (Taliani et al., Anal. Biochem. 1996, 240, 60-67) contains a fluorescence donor, EDANS, near one end of the peptide and an acceptor, DABCYL, near the other end. The fluorescence of the peptide is quenched by […] resonance energy transfer (RET) between the donor and the acceptor, but as the NS3 protease cleaves the peptide the products are released from RET quenching and the fluorescence of the donor becomes apparent. The assay reagent was made as follows: 5× cell Luciferase cell culture lysis reagent from Promega (#E153A) diluted to 1× with dH2O, NaCl added to 150 mM final, the FRET peptide diluted to 20 μM final from a 2 mM stock.
To prepare plates, HCV replicon cells, with or without a Renilla luciferase reporter gene, were trypsinized and placed into each well of a 96-well plate with titrated test compounds added in columns 3 through 12; columns 1 and 2 contained a control compound (HCV protease inhibitor), and the bottom row contained cells without compound. The plates were then placed in a CO2 incubator at 37° C.
Assays. Subsequent to addition of the test compounds described above (FRET Assay Preparation), at various times the plate was removed and Alamar blue solution (Trek Diagnostics, #00-100) was added per well as a measure of cellular toxicity. After reading in a Cytoflour 4000 instrument (PE Biosystems), plates were rinsed with PBS and then used for FRET assay by the addition of 30 ul of the FRET peptide assay reagent described above (FRET Assay Preparation) per well. The plate was then placed into the Cytoflour 4000 instrument which had been set to 340 excite/490 emission, automatic mode for 20 cycles and the plate read in a kinetic mode. Typically, the signal to noise using an endpoint analysis after the reads was at least three-fold. Alternatively, after Alamar blue reading, plates were rinsed with PBS, 50 ul of DMEM (high glucose) without phenol red was added and plates were then used for luciferase assay using the Promega Dual-Glo Luciferase Assay System,
Compound analysis was deteiniined by quantification of the relative HCV replicon inhibition and the relative cytotoxicity values. To calculate cytoxicity values, the average Alamar Blue fluorescence signals from the control wells were set as 100% non-toxic. The individual signals in each of the compound test wells were then divided by the average control signal and multiplied by 100% to determine […]. To calculate the HCV replicon inhibition values, an average background value was obtained from the two wells containing the highest amount of HCV protease inhibitor at the end of the assay period. These numbers were similar to those obtained from naïve Huh-7 cells.
The background numbers were then subtracted from the average signal obtained from the control wells and this number was used as 100% activity. The individual signals in each of the compound test wells were then divided by the averaged control values after background subtraction and multiplied by 100% to determine percent activity. EC50 values for a protease inhibitor titration were calculated as the concentration which caused a 50% reduction in FRET or luciferase activity. The two numbers generated for the compound plate, percent cytoxicity and percent activity were used to determine compounds of interest for further analysis.

[2] = test system: HCV replicon; assay: HCV Replicon Luciferase Reporter Assay (LE Assay); assay type: cell-based, HCV genotype 1b
Procedure: The HCV replicon luciferase assay was developed to monitor the inhibitory effects of compounds described in the disclosure on HCV viral replication. Utilization of a replicon luciferase reporter assay was first described by Krieger et al (Krieger N, Lohmann V, and Bartenschlager R, J. Virol. 75(10):4614-4624 (2001)). HUH-7 cells, constitutively expressing the HCV replicon, were grown in Dulbeccors Modified Eagle Media (DMEM) (Gibco-BRL) containing 10% Fetal calf serum (FCS) (Sigma) and 1 mg/ml G418 (Gibco-BRL). Compounds were serially diluted 3 folds in DMSO for a twenty-point titration and subsequently transferred to sterile 384-well tissue-culture treated plates (Coming cat #3571). The plates were then seeded with 50 μl of cells at a density of 3.0×10^3 cells/well in DMEM containing 4% FCS (final DMSO concentration at 0.5%). After 3 days incubation at 37° C., cells were analyzed for Renilla Luciferase activity using the EnduRen as substrate (Promega cat #E6485). The EnduRen substrate was diluted in DMEM and then added to the plates to a final concentration of 7.5 μM. The plates were incubated for 2 hrs at 37° C. and then read immediately for 30 seconds with Viewlux Imager (PerkinElmer) using a luminescence program. To assess cytotoxicity of compounds, CC50 values were generated by multiplexing the EnduRen-containing plates with Cell Titer-Blue (Promega, cat #G8082). 3 μl of Cell-Titer Blue was added to each well and incubated for 8 hrs at 37° C. The fluorescence signal from each well was read, with an excitation wavelength at 525/10 nm and an emission wavelength of 598/10 nm, using the Viewlux Imager.

[3] = Hepatitis C virus, genotype 1b, read-out: NeoLuc EC50, Table 1, genotype 1b
[4] = Hepatitis C virus, genotype 1b, Huh-7, read-out: LE NeoLuc EC50, Table 1, HUH-7 cells, genotype 1b replicon
[5] = Hepatitis C virus, Table 2, read-out: NeoLuc EC50
[6] = Hepatitis C virus, Huh-7, Table 2, HUH-7 cells, read-out: LE NeoLuc EC50
[7] = Table 2, HUH-7 cells, read-out: LE NeoLuc EC50

Row | SMILES | EC50 [1, 3] | EC50 [2, 4] | further results
1 | C=C(C)S(=O)(=O)NC(=O)c1ccc2c(C3CCCCC3)c3n(c2c1)C[C@@]1(C(=O)N2CC45COCC4(CN(C)C5)C2)C[C@H]1c1cc(OC)ccc1-3 (some centres unmarked) | 1.9 to 500 nM | 1.9 to 500 nM | 
2 | COc1ccc2c(c1)[C@@H]1C[C@]1(C(=O)N1CC34CNCC3(CN(C)C4)C1)Cn1c-2c(C2CCCCC2)c2ccc(C(=O)NS(=O)(=O)C(C)C)cc21 (some centres unmarked) | 1.9 to 500 nM | 500 to 1000 nM | 
3 | COc1ccc2c(c1)C=C(C(=O)N1CC34CN(C)CC3(CN(C)C4)C1)Cn1c-2c(C2CCCCC2)c2ccc(C(=O)NS(=O)(=O)N(C)C)cc21 (centres unmarked) | 1.9 to 500 nM | 1.9 to 500 nM | 
4 | COc1ccc2c(c1)C1CC1(C(=O)N1CC34CNCC3(CN(C)C4)C1)Cn1c-2c(C2CCCCC2)c2ccc(C(=O)NS(=O)(=O)N(C)C)cc21 (centres unmarked) | 1.9 to 500 nM | 1.9 to 500 nM | 
5 | COc1ccc2c(c1)C1CC1(C(=O)N1CC34CN(C)CC3(CN(C)C4)C1)Cn1c-2c(C2CCCCC2)c2ccc(C(=O)NS(=O)(=O)N(C)C)cc21 (centres unmarked) | 1.9 to 500 nM | 1.9 to 500 nM | 
6 | COc1ccc2c(c1)[C@@H]1C[C@]1(C(=O)N1CC34CN(C)CC3(CN(C)C4)C1)Cn1c-2c(C2CCCCC2)c2ccc(C(=O)NS(=O)(=O)C(C)C)cc21 (some centres unmarked) | 1.9 to 500 nM | 1.9 to 500 nM | 
7 | COc1ccc2c(c1)[C@@H]1C[C@]1(C(=O)N1CC34CNCC3(COC4)C1)Cn1c-2c(C2CCCCC2)c2ccc(C(=O)NS(=O)(=O)C(C)C)cc21 (some centres unmarked) | 1.9 to 500 nM | 1.9 to 500 nM | 
8 | COc1ccc2c(c1)[C@@H]1C[C@]1(C(=O)N1CC34COCC3(CN(C)C4)C1)Cn1c-2c(C2CCCCC2)c2ccc(C(=O)NS(=O)(=O)C(C)C)cc21 (some centres unmarked) | 1.9 to 500 nM | 1.9 to 500 nM | 
9 | COc1ccc2c(c1)C1CC1(C(=O)N1CC34CNCC3(COC4)C1)Cn1c-2c(C2CCCCC2)c2ccc(C(=O)NS(=O)(=O)N(C)C)cc21 (centres unmarked) | 1.9 to 500 nM | 1.9 to 500 nM | 
10 | COc1ccc2c(c1)C=C(C(=O)N1CC34CNCC3(COC4)C1)Cn1c-2c(C2CCCCC2)c2ccc(C(=O)NS(=O)(=O)N(C)C)cc21 (centres unmarked) | 1.9 to 500 nM | 1.9 to 500 nM | 
11 | COc1ccc2c(c1)C=C(C(=O)N1CC34CNCC3(COC4)C1)Cn1c-2c(C2CCCCC2)c2ccc(C(=O)NS(=O)(=O)C3CC3)cc21 (centres unmarked) | 1.9 to 500 nM | 1.9 to 500 nM | 
12 | COc1ccc2c(c1)C=C(C(=O)N1CC34COCC3(CN(C)C4)C1)Cn1c-2c(C2CCCCC2)c2ccc(C(=O)NS(=O)(=O)N(C)C)cc21 (centres unmarked) | 1.9 to 500 nM | 1.9 to 500 nM | 
13 | COc1ccc2c(c1)C=C(C(=O)N1CC34COCC3(CN(C)C4)C1)Cn1c-2c(C2CCCCC2)c2ccc(C(=O)NS(=O)(=O)C3CC3)cc21 (centres unmarked) | 1.9 to 500 nM | 1.9 to 500 nM | 
14 | CCN1CC23COCC2(C1)CN(C(=O)[C@]12C[C@H]1c1cc(OC)ccc1-c1c(C4CCCCC4)c4ccc(C(=O)NS(=O)(=O)C(C)C)cc4n1C2)C3 (some centres unmarked) | 1.9 to 500 nM | 1.9 to 500 nM | 
15 | COc1ccc2c(c1)CC(C(=O)N1CC34CNCC3(COC4)C1)Cn1c-2c(C2CCCCC2)c2ccc(C(=O)NS(=O)(=O)C3CC3)cc21 (centres unmarked) | > 1000 nM | 500 to 5000 nM | 
16 | COc1ccc2c(c1)CC(C(=O)N1CC34CN(C)CC3(CN(C)C4)C1)Cn1c-2c(C2CCCCC2)c2ccc(C(=O)NS(=O)(=O)N(C)C)cc21 (centres unmarked) | 1.9 to 500 nM | 1.9 to 500 nM | 
17 | COc1ccc2c(c1)C1CC1(C(=O)N1CC34COCC3(CN(C(C)=O)C4)C1)Cn1c-2c(C2CCCCC2)c2ccc(C(=O)NS(=O)(=O)CC(C)C)cc21 (centres unmarked) | 1.9 to 500 nM | 500 to 1000 nM | 
18 | COc1ccc2c(c1)CC(C(=O)N1CC34CNCC3(CN(C)C4)C1)Cn1c-2c(C2CCCCC2)c2ccc(C(=O)NS(=O)(=O)C3CC3)cc21 (centres unmarked) | > 1000 nM | 500 to 1000 nM | 
19 | COc1ccc2c(c1)CC(C(=O)N1CC34COCC3(CN(C)C4)C1)Cn1c-2c(C2CCCCC2)c2ccc(C(=O)NS(=O)(=O)C3CC3)cc21 (centres unmarked) | 1.9 to 500 nM | 1.9 to 500 nM | 
20 | COc1ccc2c(c1)[C@@H]1C[C@]1(C(=O)N1CC34COCC3(C1)CN(C1CC1)C4)Cn1c-2c(C2CCCCC2)c2ccc(C(=O)NS(=O)(=O)C(C)C)cc21 (some centres unmarked) | 1.9 to 500 nM | 1.9 to 500 nM | 
21 | COc1ccc2c(c1)[C@@H]1C[C@]1(C(=O)N1CC34COCC3(C1)N(C(C)=O)C4)Cn1c-2c(C2CCCCC2)c2ccc(C(=O)NS(=O)(=O)N(C)C)cc21 (some centres unmarked) | 1.9 to 500 nM | 1.9 to 500 nM | 
22 | COc1ccc2c(c1)C=C(C(=O)N1CC34COCC3(C1)N(C(C)=O)C4)Cn1c-2c(C2CCCCC2)c2ccc(C(=O)NS(=O)(=O)N(C)C)cc21 (centres unmarked) | 1.9 to 500 nM | 1.9 to 500 nM | 
23 | COc1ccc2c(c1)C1CC1(C(=O)N1CC34CNCC3(CN(C)C4)C1)Cn1c-2c(C2CCCCC2)c2ccc(C(=O)NS(=O)(=O)C3CC3)cc21 (centres unmarked) |  |  | EC50 [1, 5]: > 1000 nM; EC50 [2, 6]: 2100 nM
24 | COc1ccc2c(c1)C1CC1(C(=O)N1CC34COCC3(CN(C)C4)C1)Cn1c-2c(C2CCCCC2)c2ccc(C(=O)NS(=O)(=O)N(C)C)cc21 (centres unmarked) [drawing 61] | 1.9 to 500 nM | 1.9 to 500 nM | 
25 | COc1ccc2c(c1)[C@@H]1C[C@]1(C(=O)N1CC34COCC3(C1)N(C(C)=O)C4)Cn1c-2c(C2CCCCC2)c2ccc(C(=O)NS(=O)(=O)C(C)C)cc21 (some centres unmarked) [drawing 73] | 1.9 to 500 nM | 1.9 to 500 nM | 
26 | COc1ccc2c(c1)C1CC1(C(=O)N1CC34COCC3(CN(C)C4)C1)Cn1c-2c(C2CCCCC2)c2ccc(C(=O)NS(=O)(=O)N(C)C)cc21 (centres unmarked) [drawing 106] |  |  | EC50 [1, 5]: 20 nM; EC50 [2, 6]: 40 nM
27 | COc1ccc2c(c1)[C@@H]1C[C@]1(C(=O)N1CC34COCC3(C1)N(C(C)=O)C4)Cn1c-2c(C2CCCCC2)c2ccc(C(=O)NS(=O)(=O)C(C)C)cc21 (some centres unmarked) [drawing 109] |  |  | EC50 ([1]; Table 2, read-out: NeoLuc EC50): 130 nM; EC50 [2, 7]: 90 nM
28 | COc1ccc2c(c1)[C@@H]1C[C@]1(C(=O)N1CC34COCC3(C1)N(C(C)=O)C4)Cn1c-2c(C2CCCCC2)c2ccc(C(=O)NS(=O)(=O)C(C)C)cc21 (some centres unmarked) [drawing 110] |  |  | EC50 ([1]; Table 2, read-out: NeoLuc EC50): 10 nM; EC50 [2, 7]: 30 nM
